Results as given in patent US6103767A, “Physiologically active substances TKR1785's, process for the preparation thereof, and microbe” (Takara Shuzo Co., Ltd., priority 1996, dated 2000).
Values after ≈ are worked out from the molar mass of the structure shown.

What was measured:
[1] = tested on: Aspargillus fumigatus TIMM1776; assay: Antifungal activity, liquid medium dilution method; assay type: cell-based; conditions: Aspargillus fumigatus TIMM1776, BHI medium; for IC50: read-out: 50% inhibitory concentration (in parentheses); for MIC: read-out: Minimal inhibitory concentration
Method: (§1) The antifungal activity of the above substance TKR1785 against various microorganisms was investigated. Using the liquid medium dilution method, the concentration which caused substantially complete Inhibition of growth was determined as minimal inhibitory concentration (μg/ml). The concentration causing a partial inhibition of growth was also determined as 50% inhibitory concentration (μg/ml) and is shown in parentheses of table 2. In the table, YNBG represents a medium containing 0.67% of yeast nitrogen base (Difco) and 1% of glucose. BHI represents a medium containing 0.5% of brain heart infusion bouillon (Nissui Pharmaceutical). YNBG-Tween represents a medium containing 0.67% of yeast nitrogen base, 0.5% bactocasitone, 2% of glucose, and 1% of Tween 40.

[2] = tested on: Cryptococcus neoformans TIMM0354; assay: Antifungal activity, liquid medium dilution method; assay type: cell-based; conditions: Cryptococcus neoformans TIMM0354, YNBG medium; for IC50: read-out: 50% inhibitory concentration (in parentheses); for MIC: read-out: Minimal inhibitory concentration
Method: as §1

[3] = tested on: Candida albicans TIMM0136; assay: Antifungal activity, liquid medium dilution method; assay type: cell-based; conditions: Candida albicans TIMM0136, YNBG medium; for IC50: partial inhibition of growth, read-out: 50% inhibitory concentration (in parentheses); for MIC: substantially complete inhibition of growth, read-out: Minimal inhibitory concentration
Method: as §1

Candida kefir TIMM0301 = assay: Antifungal activity, liquid medium dilution method; assay type: cell-based; conditions: Candida kefir TIMM0301, YNBG medium; for MIC: read-out: Minimal inhibitory concentration
Method: as §1

ICR mice = assay: Toxicity in mice, intraperitoneal; assay type: in vivo; conditions: intraperitoneally, 50 mg/kg
[4] = Solubility in various solvents; assay type: physicochemical
[5] = tested on: Mixed lymphocyte reaction (C57BL/6 responder cells, BALB/c stimulator cells); assay: Mixed lymphocyte reaction (MLR) inhibitory activity, 3H-thymidine uptake; assay type: cell-based, mice; conditions: mouse spleen cells, 3H-thymidine uptake vs sample-free group, read-out: 50% inhibitory concentration, MLR-inhibitory activity
Method: From C57BL/6 and BALB/c mice, the spleen was isolated and homogenized in a medium to provide a cell suspension. The cell suspension derived from C57BL/6 mice was passed through a nylon wool column to prepare a T cell-rich fraction (responder cells). The BALB/c-derived cell suspension was irradiated with X-rays to prepare stimulator cells. The responder cells and stimulator cells were mixed in a ratio of 1:1 and incubated in a CO2 incubator for 4 days. Following addition of 3H-thymidine, the cells were further culturen overnight. The cells were then recovered and the amount of ^3 H-thymidine uptake was determined. The samples (500, 125, 31.2, and 7.8 μg/ml solutions of dimethyl sulfoxide diluted with the medium) were respectively added in a proportion of 0.5% at mixing the responder cells with the stimulator cells to final concentrations of 25 to 0.039 μg/ml. The inhibitory activity was determined by comparison with the 3H-thymidine uptake in the sample-free group.

[6] = tested on: phospholipase A2 (derived from porcine pancreas); assay: Phospholipase A2 inhibitory activity ([14C]palmitic acid release from [14C]phosphatidylcholine); assay type: biochemical
Method: (§2) The inhibitory activity of TKR1785-I against phospholipase A2 (derived from porcine pancreas) and leukotriene (LT) C4 synthase (derived from the guinea-pig lung), which are enzymes related to the immune system, was determined. Phospholipase A2 activity was assayed for a hexane extract under acidic conditions by determining the [^14 C]palmitic acid released from [^14 C]phosphatidylcholine. LTC4 synthase activity was assayed by determining the yield of LTC4 from LTA4 by the RIA method.

[7] = tested on: Malassezia furfur TIMM2782; assay: Antifungal activity, liquid medium dilution method; assay type: cell-based; conditions: Malassezia furfur TIMM2782, YNBG-Tween medium; read-out: 50% inhibitory concentration (in parentheses)
Method: as §1

[8] = tested on: leukotriene (LT) C4 synthase (derived from the guinea-pig lung); assay: LTC4 synthase inhibitory activity (yield of LTC4 from LTA4 by RIA); assay type: biochemical
Method: as §2

CCCCCCCCCCCCCC(O)CC(O)C(N)CC(=O)N[C@H](C(=O)NC(CO)CO)[C@@H](C)CC (single isomer, unassigned) [TKR1785-II]
IC50 [1]: 25 µg/mL (≈ 47 µM)
MIC [1]: 50 µg/mL (≈ 94 µM)
IC50 [2]: 6.25 µg/mL (≈ 11.8 µM)
MIC [2]: 12.5 µg/mL (≈ 23.5 µM)
IC50 [3]: 6.25 µg/mL (≈ 11.8 µM)
MIC [3]: 12.5 µg/mL (≈ 23.5 µM)
IC50 (Candida kefir TIMM0301; read-out: 50% inhibitory concentration (in parentheses)): 6.25 µg/mL (≈ 11.8 µM)
MIC (Candida kefir TIMM0301): 12.5 µg/mL (≈ 23.5 µM)
Toxic response (ICR mice): no toxic response was found

CCCCCCCCCCCCCC(O)CC(O)C(N)CC(=O)N[C@H](C(=O)NC(CO)CO)C(C)C (single isomer, unassigned) [TKR1785-I]
Solubility in chloroform and hexane ([4]; chloroform, hexane): only sparingly soluble in chloroform and hexane
Solubility in methanol and water ([4]; methanol, water): soluble in methanol and water
IC50 [5]: 0.41 µg/mL (≈ 0.792 µM)
Inhibition (%) ([6]; Phospholipase A2, test concentration 10 μg/ml): 33%
Inhibition (%) ([6]; Phospholipase A2, test concentration 100 μg/ml): 92%
IC50 [1]: 3.13 µg/mL (≈ 6.05 µM)
MIC [1]: 25 µg/mL (≈ 48.3 µM)
IC50 [2]: 3.13 µg/mL (≈ 6.05 µM)
MIC [2]: 6.25 µg/mL (≈ 12.1 µM)
IC50 [7]: 12.5 µg/mL (≈ 24.1 µM)
IC50 [3]: 6.25 µg/mL (≈ 12.1 µM)
MIC [3]: 12.5 µg/mL (≈ 24.1 µM)
MIC (Candida kefir TIMM0301): 6.25 µg/mL (≈ 12.1 µM)
Toxic response (ICR mice): no toxic response was found
Inhibition (%) ([8]; test concentration 30 μg/ml): 21%
Inhibition (%) ([8]; test concentration 300 μg/ml): 98%
